Measured values as given in paper PMC7617869, “Molecular glues that inhibit deubiquitylase activity and inflammatory signaling” (Nature Structural & Molecular Biology, 2025).
Several values for one entry are separate records, joined by “and”; a condition that tells them apart may be missing. Equal entries are not always repeated.

What was measured:
[1] = system: ISG expression in SSc PBMCs; test: SSc PBMC type I IFN signaling gene expression array, unstimulated; assay type: cell-based, human; details: unstimulated PBMCs from SSc patients; one value per patient (P1-P9)
Procedure: PBMCs in vitro experiments
Peripheral blood mononuclear cells (PBMCs) from healthy and SSc donors were separated using density gradient method (Leucosep™, Greiner Bio-One International) from EDTA anticoagulated peripheral blood; isolated cells were washed twice by PBS. PBMCs were then incubated in RPMI1640 […]
For healthy PBMCs, cells were stimulated with 20 ng/mL of IFN (+/- compounds or DMSO). For SSc PBMCs, cells were in basal conditions with no additional IFN stimulation. Cells were centrifuged at 300 g for 10 minutes. […]
RNA was extracted from cell pellets using TRIzol™ (ThermoFisher
Scientific, Waltham, MA) and processed using Quick-RNA Miniprep Kit (Zymo Research) as per the manufacturer’s instruction.
For Type I IFN signalling analysis, the human IFN I RT2 Profiler PCR Array (Qiagen, PAMM-016ZE) was performed on available RNA from healthy (n=3) and SSc (n=9) donors. RNA was converted to cDNA using RT2 First Strand Kit (Qiagen). Next, the cDNA was mixed with RT2 SYBR Green Mastermix (Qiagen, Venlo). Successful PCR performance was confirmed by assay tests for genomic DNA contamination, RNA sample quality, as well as single melt curve determination and <35 Ct for each gene, leading to validated gene expression of 67 genes. Relative expression for each gene was determined, firstly by ∆CT calculated using the geometric mean of 4 housekeeping genes (ACTB, GAPDH, HPRT1, RPLP0), followed by 2^(-∆CT), and expressed as fold change to control, according to manufacturer’s guidance. IFN2α-induced ISGs in healthy donors were determined using a Student’s t-test (two-tail distribution and equal variances) on the triplicate fold change in 2^(-ΔCT) values between […]
donors). Heatmaps were generated using the “pheatmap” function in R (v4.0.2) and RStudio (v1.3.1093) applying row scaling to standardise the expression data across samples (R core team 2020.
R Foundation for Statistical Computing). The IFN2α inducible genes determined in healthy donors […]
171-C. To account for Type I IFN signalling heterogeneity across samples, the mean 2^(-∆CT) for each […]
relative gene expression, illustrated as a fold change and visualised in log2. The Type I IFN signalling array data for the patient samples is included in Source Data Figure 6, Extended Data Fig. 9.

[2] = system: ISRE in THP-1 cells (TLR9 agonist ODN 2216); test: THP-1 ISRE luciferase reporter, ODN 2216 stimulation; assay type: cell-based, human; details: ODN 2216 1 µM, 4 μM compound, 16 h
Procedure: THP-1 in vitro experiments
THP-1-DualTM cells (InvivoGen), derived from a human monocytic cell line, isolated from a patient with acute monocytic leukaemia, were cultured as per manufacturer’s guidance. Cells were seeded at 1x10^6 cells/mL in RPMI1640 media containing 10% fetal bovine serum (FBS), 1% penicillin-streptomycin (PS) (Gibco Laboratories) with DMSO (0.1%) (control) or in media containing JMS-175- […]
ng/mL) (Merck Life Science), ODN 2216 (1 µM) (Miltenyi Biotec), or Poly:IC (1 µg/mL) (InvivoGen).
Tofacitinib (Cambridge Biosciences) at 0.4 µM was used for comparison against a known JAK inhibitor.
Cells were centrifuged at 300 g for 5 minutes. Supernatant was removed and subjected to simultaneous study of the NF -κB pathway, by monitoring the activity of secreted alkaline phosphatase reporter (SEAP), and the IRF pathway, by assessing the activity o f a secreted Lucia luciferase using QUANTI - Blue ™ Solution and QUANTI -Luc™ 4 Lucia/Gaussia (InvivoGen), respectively, as per manufacturer’s instructions. Pelleted cells were used for FACS analysis using IFNα/β R1 APC-conjugated antibody or isotype control (Biotechne, FAB245A and IC002A), or unstained staining procedure with and without Zombie GreenTM (Biolegend). Samples were analysed using CytoFlex LX (Beckman) (50,000 live cells per condition). Median fluorescence intensity for APC channel gated on single cell live cells was analysed and compared as a percentage to control (no stimulation condition). […]

Cn1cc(NC(=O)c2c(Cl)cccc2Cl)c(C(=O)NC2CCN(C(=O)c3c(Cl)cccc3Cl)CC2)n1 [AP-5-145]
ADAR, Type I IFN signalling array raw data [1]: 3.585 and 4.485 and 4.334 and 4.353 and 5.313 and 4.699 and 4.415 and 5.111 and 3.559
BST2, Type I IFN signalling array raw data [1]: 3.184 and 2.458 and 3.302 and 3.672 and 2.309 and 1.595 and 4.59 and 3.685 and 1.654
CASP1, Type I IFN signalling array raw data [1]: 1.628 and 0.9815 and 2.95 and 3.664 and 1.948 and 2.361 and 2.033 and 2.206 and 1.183
CD86, Type I IFN signalling array raw data [1]: 4.785 and 2.783 and 4.5852 and 3.1897 and 4.314 and 3.552 and 4.0343 and 4.013 and 3.55
CXCL10, Type I IFN signalling array raw data [1]: 2.8643 and 6.708 and 5.453 and 2.734 and 4.396 and 4.529 and 5.68 and 6.078 and 3.688
DDX58, Type I IFN signalling array raw data [1]: 2.4595 and 2.543 and 3.026 and 3.209 and 2.763 and 1.787 and 3.543 and 4.173 and 1.175
GBP1, Type I IFN signalling array raw data [1]: 0.1474 and 2.145 and 2.622 and 1.459 and 0.8545 and 1.754 and 2.939 and 2.1766 and -0.4621
IFI6, Type I IFN signalling array raw data [1]: 2.465 and 2.227 and 2.936 and 2.73 and 1.772 and 0.8033 and 3.207 and 3.6638 and 1.0872
IFI16, Type I IFN signalling array raw data [1]: 1.83 and 1.644 and 2.049 and 2.362 and 1.331 and 1.292 and 2.492 and 2.951 and 1.1658
IFIH1, Type I IFN signalling array raw data [1]: 3.174 and 3.642 and 3.693 and 3.986 and 3.429 and 3.042 and 4.0109 and 5.193 and 2.582
IFIT1, Type I IFN signalling array raw data [1]: 4.24 and 3.643 and 3.989 and 4.293 and 2.488 and 1.397 and 4.575 and 7.138 and 1.6699
IFIT2, Type I IFN signalling array raw data [1]: 3.353 and 3.202 and 2.7801 and 3.719 and 2.327 and 0.07597 and 4.728 and 5.592 and 0.851
IFIT3, Type I IFN signalling array raw data [1]: 2.463 and 3.281 and 3.064 and 3.575 and 3.043 and 1.248 and 5.135 and 5.476 and 1.263
IFITM1, Type I IFN signalling array raw data [1]: -0.2471 and 0.1243 and 0.2716 and 1.178 and 0.8183 and 0.3168 and 1.196 and 1.705 and -0.8285
IFITM2, Type I IFN signalling array raw data [1]: 3.999 and 3.471 and 4.22 and 5.1798 and 5.262 and 5.108 and 4.673 and 5.09 and 4.191
IFITM3, Type I IFN signalling array raw data [1]: 3.006 and 2.32 and 3.244 and 3.786 and 1.434 and -0.1662 and 3.42 and 4.49 and -0.2026
IRF1, Type I IFN signalling array raw data [1]: 1.06 and 1.224 and 2.232 and 2.144 and 1.15 and 2.067 and 2.585 and 1.973 and 0.5242
IRF7, Type I IFN signalling array raw data [1]: 5.407 and 5.206 and 4.576 and 6.178 and 4.455 and 3.933 and 5.89 and 5.935 and 9.933
IRF9, Type I IFN signalling array raw data [1]: 2.066 and 2.065 and 2.241 and 2.2692 and 1.294 and 1.106 and 2.973 and 2.809 and 0.8366
ISG15, Type I IFN signalling array raw data [1]: 2.596 and 6.312 and 3.3545 and 3.693 and 0.9621 and 0.3667 and 4.1244 and 6.015 and 0.1079
ISG20, Type I IFN signalling array raw data [1]: 2.432 and 2.479 and 2.547 and 3.375 and 2.843 and 3.174 and 3.393 and 3.464 and 1.322
MX1, Type I IFN signalling array raw data [1]: 4.424 and 4.226 and 3.58 and 4.634 and 2.28 and 2.399 and 4.395 and 5.558 and 2.679
MX2, Type I IFN signalling array raw data [1]: 4.173 and 3.658 and 2.952 and 4.357 and 2.358 and 2.074 and 3.745 and 4.851 and 2.355
MYD88, Type I IFN signalling array raw data [1]: 3.563 and 2.295 and 2.992 and 3.3169 and 2.321 and 1.993 and 3.136 and 2.869 and 2.18
NMI, Type I IFN signalling array raw data [1]: 1.73 and 1.406 and 2.205 and 1.958 and 1.878 and 1.724 and 2.633 and 2.762 and 1.099
OAS1, Type I IFN signalling array raw data [1]: 3.537 and 3.8519 and 3.958 and 4.26 and 2.489 and 2.393 and 5.01 and 4.925 and 2.848
OAS2, Type I IFN signalling array raw data [1]: 3.256 and 3.665 and 3.696 and 4.93 and 3.216 and 2.622 and 4.725 and 4.971 and 2.257
PML, Type I IFN signalling array raw data [1]: 3.769 and 4.451 and 4.457 and 4.682 and 3.169 and 3.581 and 5.048 and 5.21 and 2.632
SOCS1, Type I IFN signalling array raw data [1]: 4.276 and 3.145 and 2.943 and 3.915 and 3.6717 and 2.288 and 4.381 and 4.149 and 1.789
STAT1, Type I IFN signalling array raw data [1]: -1.171 and 0.5507 and 0.704 and -0.4526 and -0.2783 and 1.689 and 0.5533 and 0.2423 and -1.283
STAT2, Type I IFN signalling array raw data [1]: 3.543 and 4.373 and 3.597 and 3.344 and 3.627 and 3.236 and 4.148 and 3.986 and 2.129
STAT3, Type I IFN signalling array raw data [1]: 1.898 and 1.636 and 1.633 and 5.446 and 2.412 and 1.5196 and 2.3996 and 2.61 and 1.33
TAP1, Type I IFN signalling array raw data [1]: 1.436 and 1.649 and 2.5757 and 2.2546 and 2.075 and 1.836 and 3.734 and 2.309 and 0.9557
TNFSF10, Type I IFN signalling array raw data [1]: 2.318 and 2.989 and 3.028 and 3.374 and 2.092 and 2.434 and 3.558 and 3.768 and 2.177
ISRE luciferase signal in THP-1 supernatant [2]: 228.667 and 315.667 and 335.333
